Patent US8399609B2, “Treating or preventing extracellular matrix build-up” (RegeneRx Biopharmaceuticals, Inc., priority 2004, dated 2013)

Test system: Human Blood Platelets
Experiment: Platelet aggregation assay (Payton duo-channel aggregometer), PAF-16-induced aggregation in platelet-rich plasma
Assay type: cell-based
Settings: agonist PAF-16 20 ng/ml
Procedure: Platelet Aggregation Assay
The inhibitory effects of Tβ4 on platelet aggregation were tested using a Payton duo-channel aggregometer. This aggregometer produces a plot of % light transmission (directly proportional to % aggregation) vs. time.
For each experiment, one 9 ml blood sample was drawn from a fasting, non-smoking, healthy subject into a propylene tube containing 1 ml of 3.8% sodium-citrate (anti-coagulant). This blood sample was then diluted with 2 ml of phosphate buffer (phosphate-buffer saline with 11 mM glucose and 3 mM sodium citrate). Dilution with phosphate buffer aids in stabilization of the platelet environment and retention of platelet activity for a longer period of time. Platelet-rich plasma (PRP) was prepared by centrifuging the blood for 3 min at 2300 RPM. After removal of PRP, the volume of the remaining blood was brought up to 10 ml by adding phosphate buffer, and the sample was once again centrifuged for the preparation of platelet-poor (PPP). To obtain PPP, we centrifuged the blood for 10 min at 2800 RPM.
Platelet aggregation tests were performed by recording % light transmission (vs. time) through samples of PRP. Before each assay, the aggregometer was adjusted such that PRP gave no light transmission. For aggregation assays, duplicate samples (0.4 ml) of PRP were incubated with 1 mM CaCl2 (to restore the physiologic concentration of Ca^++) for 1 min at 37° C. Different amounts of Tβ4, ranging for 20 to 300 ng, dissolved in 30 μl of distilled/deionized water, were added to each assay. The mixture was then incubated and stirred for an additional 2 min before aggregation was induced with an agonist.
Among the agonists used in the experiments were ADP, epinephrine, arachidonic acid, thrombin, collagen (Sigma Chemicals), and PAF (Platelet-activating factor)-16 (from Calbiochem). Concentrations of these reagents were 1 μm, 10 μm, 100 μg/ml, 0.2 NIH units, 0.05 mg/ml, and 20 ng/ml respectively. Two control assays were run at the beginning and end of each experiment. An assay without Tβ4 (but with an equivalent volume of H2O) constitutes a control, and the % light transmission produced by each control is assigned a value of % 100 for each experiment. For the measurement of % inhibition caused by Tβ4, light transmission in a Tβ4 assay was compared to the average light transmission in the start and end controls, using the following formula: […]

For “thymosin beta 4 (SDKPDMAEIEKFDKSKLKKTETQEKNPLPSKETIEQEKQAGES; Thymosin beta-4; UniProt P62328 2-44, looked up) [Tβ4]”, the “Average % Inhibition of Aggregation” value (20 ng Tβ4 per assay (0.4 ml PRP)) was 50%, the “Average % Inhibition of Aggregation” value (40 ng Tβ4 per assay (0.4 ml PRP)) was 90% and the “Average % Inhibition of Aggregation” value (60 ng Tβ4 per assay (0.4 ml PRP)) was 100%. The “Average % Inhibition of Aggregation” value (80 ng Tβ4 per assay (0.4 ml PRP)) was 95%, the “Average % Inhibition of Aggregation” value (100 ng Tβ4 per assay (0.4 ml PRP)) was 92% and the “Average % Inhibition of Aggregation” value (300 ng Tβ4 per assay (0.4 ml PRP)) was 84%.
